Experimental data from ChEMBL document CHEMBL5113477, “Membrane acting Povarov-Doebner derived compounds potently disperse preformed multidrug resistant Gram-positive bacterial biofilms” (Eur J Med Chem, 2022).
In brackets after ≈: the same amount, converted by molar mass.

How the values were obtained:
Type in all cases: functional
Staphylococcus aureus [1] = experiment: Antibacterial activity against Staphylococcus aureus ATCC 25923 assessed as reduction in visible bacterial growth incubated for 18 to 20 hrs by CLSI based broth microdilution analysis; settings: time 18-20 hrs
Enterococcus faecalis [2] = experiment: Antibacterial activity against vancomycin-resistant Enterococcus faecalis ATCC 51575 assessed as reduction in visible bacterial growth incubated for 18 to 20 hrs by CLSI based broth microdilution analysis; settings: time 18-20 hrs
Enterococcus faecium [3] = experiment: Antibacterial activity against vancomycin-resistant Enterococcus faecium ATCC 700221 assessed as reduction in visible bacterial growth incubated for 18 to 20 hrs by CLSI based broth microdilution analysis; settings: time 18-20 hrs
Listeria monocytogenes = experiment: Antibacterial activity against Listeria monocytogenes ATCC 19115 assessed as reduction in visible bacterial growth incubated for 18 to 20 hrs by CLSI based broth microdilution analysis; settings: time 18-20 hrs
Staphylococcus aureus [4] = experiment: Antibacterial activity against methicillin-resistant Staphylococcus aureus USA 300 assessed as reduction in visible bacterial growth incubated for 18 to 20 hrs by CLSI based broth microdilution analysis; settings: time 18-20 hrs
Staphylococcus aureus [5] = experiment: Antibacterial activity against methicillin-resistant Staphylococcus aureus ATCC 33592 assessed as reduction in visible bacterial growth incubated for 18 to 20 hrs by CLSI based broth microdilution analysis; settings: time 18-20 hrs
Enterococcus faecalis [6] = experiment: Antibacterial activity against Enterococcus faecalis ATCC 29212 assessed as reduction in visible bacterial growth incubated for 18 to 20 hrs by CLSI based broth microdilution analysis; settings: time 18-20 hrs
Staphylococcus aureus [7] = experiment: (§1) Synergistic antibiofilm activity against methicillin-resistant Staphylococcus aureus USA 300 in TSB broth assessed as dispersal of glucose-induced biofilm preincubated with glucose for 48 hrs followed by compound addition and further incubated for 24 hrs in presence of Bithionol by crystal violet staining based checkerboard assay
Enterococcus faecalis [8] = experiment: Antibiofilm activity against vancomycin-resistant Enterococcus faecalis ATCC 51575 in TSB broth assessed as dispersal of glucose-induced biofilm preincubated with glucose for 48 hrs followed by compound addition and measured after 24 hrs by crystal violet staining based analysis
Enterococcus faecalis [9] = experiment: (§2) Synergistic antibiofilm activity against vancomycin-resistant Enterococcus faecalis ATCC 51575 in TSB broth assessed as dispersal of glucose-induced biofilm by measuring fractional inhibitory concentration index preincubated with glucose for 48 hrs followed by compound addition and further incubated for 24 hrs in presence of Nitroxoline by crystal violet staining based checkerboard assay
Staphylococcus aureus [10] = experiment: (§3) Synergistic antibiofilm activity against methicillin-resistant Staphylococcus aureus USA 300 in TSB broth assessed as dispersal of glucose-induced biofilm by measuring fractional inhibitory concentration index preincubated with glucose for 48 hrs followed by compound addition and further incubated for 24 hrs in presence of Nitroxoline by crystal violet staining based checkerboard assay
Enterococcus faecalis [11] = experiment: as §2, with “Bithionol” for “Nitroxoline”
Enterococcus faecium [12] = experiment: as §2, with “faecium” for “faecalis”, “700221” for “51575”, “Bithionol” for “Nitroxoline”
Enterococcus faecalis [13] = experiment: as §2, with “biofilm” for “biofilm by measuring fractional inhibitory concentration index”, “Bithionol” for “Nitroxoline”
Enterococcus faecalis [14] = experiment: as §2, with “Nitroxoline MBEC” for “fractional inhibitory concentration index”, “measured after” for “further incubated for”, “hrs” for “hrs in presence of Nitroxoline”
Staphylococcus aureus [15] = experiment: as §1, with “Nitroxoline” for “Bithionol”
Enterococcus faecium [16] = experiment: (§4) Synergistic antibiofilm activity against vancomycin-resistant Enterococcus faecium ATCC 700221 in TSB broth assessed as dispersal of glucose-induced biofilm by measuring Bithionol MBEC preincubated with glucose for 48 hrs followed by compound addition and measured after 24 hrs by crystal violet staining based checkerboard assay
Enterococcus faecalis [17] = experiment: as §2, with “biofilm” for “biofilm by measuring fractional inhibitory concentration index”
Enterococcus faecium [18] = experiment: (§5) Synergistic antibiofilm activity against vancomycin-resistant Enterococcus faecium ATCC 700221 in TSB broth assessed as dispersal of glucose-induced biofilm preincubated with glucose for 48 hrs followed by compound addition and further incubated for 24 hrs in presence of Bithionol by crystal violet staining based checkerboard assay
Staphylococcus aureus [19] = experiment: (§6) Synergistic antibiofilm activity against methicillin-resistant Staphylococcus aureus USA 300 in TSB broth assessed as dispersal of glucose-induced biofilm by measuring Nitroxoline MBEC preincubated with glucose for 48 hrs followed by compound addition and measured after 24 hrs by crystal violet staining based checkerboard assay
Enterococcus faecium [20] = experiment: as §4, with “Nitroxoline” for “Bithionol”
Staphylococcus aureus [21] = experiment: as §3, with “Bithionol” for “Nitroxoline”
Enterococcus faecium [22] = experiment: Antibiofilm activity against vancomycin-resistant Enterococcus faecium ATCC 700221 in TSB broth assessed as dispersal of glucose-induced biofilm preincubated with glucose for 48 hrs followed by compound addition and measured after 24 hrs by crystal violet staining based analysis
Enterococcus faecium [23] = experiment: as §2, with “faecium” for “faecalis”, “700221” for “51575”
Staphylococcus aureus [24] = experiment: as §6, with “Bithionol” for “Nitroxoline”
Enterococcus faecalis [25] = experiment: as §4, with “faecalis” for “faecium”, “51575” for “700221”
Staphylococcus aureus [26] = experiment: Antibiofilm activity against methicillin-resistant Staphylococcus aureus USA 300 in TSB broth assessed as dispersal of glucose-induced biofilm preincubated with glucose for 48 hrs followed by compound addition and measured after 24 hrs by crystal violet staining based analysis
Enterococcus faecium [27] = experiment: as §5, with “Nitroxoline” for “Bithionol”
Staphylococcus aureus [28] = experiment: Antibacterial activity against methicillin-resistant Staphylococcus aureus USA 300 (ARLG 1567) assessed as reduction in visible bacterial growth incubated for 18 to 20 hrs by CLSI based broth microdilution analysis; settings: time 18-20 hrs
Staphylococcus aureus [29] = experiment: Antibacterial activity against methicillin-resistant Staphylococcus aureus USA 300 (ARLG 1568) assessed as reduction in visible bacterial growth incubated for 18 to 20 hrs by CLSI based broth microdilution analysis; settings: time 18-20 hrs
Staphylococcus aureus [30] = experiment: Antibacterial activity against methicillin-resistant Staphylococcus aureus USA 300 (ARLG 1569) assessed as reduction in visible bacterial growth incubated for 18 to 20 hrs by CLSI based broth microdilution analysis; settings: time 18-20 hrs
Staphylococcus aureus [31] = experiment: Antibacterial activity against methicillin-resistant Staphylococcus aureus USA 300 (ARLG 1665) assessed as reduction in visible bacterial growth incubated for 18 to 20 hrs by CLSI based broth microdilution analysis; settings: time 18-20 hrs
Staphylococcus aureus [32] = experiment: Antibacterial activity against methicillin-resistant Staphylococcus aureus USA 300 (ARLG 1561) assessed as reduction in visible bacterial growth incubated for 18 to 20 hrs by CLSI based broth microdilution analysis; settings: time 18-20 hrs
Staphylococcus aureus [33] = experiment: Antibacterial activity against methicillin-resistant Staphylococcus aureus USA 300 (ARLG 1570) assessed as reduction in visible bacterial growth incubated for 18 to 20 hrs by CLSI based broth microdilution analysis; settings: time 18-20 hrs
Staphylococcus aureus [34] = experiment: Antibacterial activity against methicillin-resistant Staphylococcus aureus USA 300 (ARLG 1644) assessed as reduction in visible bacterial growth incubated for 18 to 20 hrs by CLSI based broth microdilution analysis; settings: time 18-20 hrs
Staphylococcus aureus [35] = experiment: Antibacterial activity against methicillin-resistant Staphylococcus aureus USA 300 (ARLG 1663) assessed as reduction in visible bacterial growth incubated for 18 to 20 hrs by CLSI based broth microdilution analysis; settings: time 18-20 hrs
Staphylococcus aureus [36] = experiment: Antibacterial activity against methicillin-resistant Staphylococcus aureus USA 300 (ARLG 1649) assessed as reduction in visible bacterial growth incubated for 18 to 20 hrs by CLSI based broth microdilution analysis; settings: time 18-20 hrs

Oc1ccc([C@@H]2Nc3c(ccc(Cl)c3Cl)[C@H]3[C@@H]4CC[C@@H](C4)[C@H]32)cc1
MIC (Staphylococcus aureus [1]): 4 µg/mL (≈ 11.1 µM)

Oc1ccc([C@@H]2Nc3ccc(SC(F)(F)F)cc3[C@H]3[C@@H]4CC[C@@H](C4)[C@H]32)cc1
MIC (Enterococcus faecalis [2]): 2 µg/mL (≈ 5.11 µM)
MIC (Enterococcus faecium [3]): 2 µg/mL (≈ 5.11 µM)
MIC (Listeria monocytogenes): 2 µg/mL (≈ 5.11 µM)
MIC (Staphylococcus aureus [1]): 2 µg/mL (≈ 5.11 µM)
MIC (Staphylococcus aureus [4]): 2 µg/mL (≈ 5.11 µM)
MIC (Staphylococcus aureus [5]): 2 µg/mL (≈ 5.11 µM)
MIC (Enterococcus faecalis [6]): 2 µg/mL (≈ 5.11 µM)

Oc1ccc([C@@H]2Nc3c(SC(F)(F)F)cccc3[C@H]3[C@@H]4CC[C@@H](C4)[C@H]32)cc1
MIC (Staphylococcus aureus [1]): > 16 µg/mL

FC(F)(F)c1n[nH]cc1[C@@H]1Nc2ccc(S(F)(F)(F)(F)F)cc2[C@H]2[C@@H]3CC[C@@H](C3)[C@H]21
MBEC (Staphylococcus aureus [7]): 1 µg/mL
MBEC (Enterococcus faecalis [8]): 32 µg/mL
fractional inhibitory concentration index (FICI) (Enterococcus faecalis [9]): 0.25
fractional inhibitory concentration index (FICI) (Staphylococcus aureus [10]): 0.38
fractional inhibitory concentration index (FICI) (Enterococcus faecalis [11]): 0.28
fractional inhibitory concentration index (FICI) (Enterococcus faecium [12]): 0.28
MBEC (Enterococcus faecalis [13]): 1 µg/mL
MBEC (Enterococcus faecalis [14]): 2 µg/mL
MBEC (Staphylococcus aureus [15]): 8 µg/mL
MBEC (Enterococcus faecium [16]): 4 µg/mL
MBEC (Enterococcus faecalis [17]): 1 µg/mL
MBEC (Enterococcus faecium [18]): 1 µg/mL
MBEC (Staphylococcus aureus [19]): 2 µg/mL
MBEC (Enterococcus faecium [20]): 2 µg/mL
fractional inhibitory concentration index (FICI) (Staphylococcus aureus [21]): 0.28
MBEC (Enterococcus faecium [22]): 32 µg/mL
fractional inhibitory concentration index (FICI) (Enterococcus faecium [23]): 0.16
MBEC (Staphylococcus aureus [24]): 2 µg/mL
MBEC (Enterococcus faecalis [25]): 2 µg/mL
MBEC (Staphylococcus aureus [26]): 32 µg/mL
MBEC (Enterococcus faecium [27]): 1 µg/mL

CN[C@H](CC(C)C)C(=O)N[C@H]1C(=O)N[C@@H](CC(N)=O)C(=O)N[C@H]2C(=O)N[C@H]3C(=O)N[C@H](C(=O)N[C@H](C(=O)O)c4cc(O)cc(O)c4-c4cc3ccc4O)[C@H](O)c3ccc(c(Cl)c3)Oc3cc2cc(c3O[C@@H]2O[C@H](CO)[C@@H](O)[C@H](O)[C@H]2O[C@H]2C[C@](C)(N)[C@H](O)[C@H](C)O2)Oc2ccc(cc2Cl)[C@H]1O [VANCOMYCIN]
MBC (Staphylococcus aureus [28]): 1 µg/mL (≈ 0.69 µM)
MBC (Staphylococcus aureus [29]): 1 µg/mL (≈ 0.69 µM)
MBC (Staphylococcus aureus [30]): 1 µg/mL (≈ 0.69 µM)
MBC (Listeria monocytogenes): 2 µg/mL (≈ 1.38 µM)
MIC (Listeria monocytogenes): 1 µg/mL (≈ 0.69 µM)
MBC (Staphylococcus aureus [1]): 2 µg/mL (≈ 1.38 µM)
MBC (Staphylococcus aureus [31]): 8 µg/mL (≈ 5.52 µM)
MBC (Staphylococcus aureus [4]): 2 µg/mL (≈ 1.38 µM)
MBC (Staphylococcus aureus [32]): 1 µg/mL (≈ 0.69 µM)
MBC (Staphylococcus aureus [5]): 1 µg/mL (≈ 0.69 µM)
MBC (Staphylococcus aureus [33]): 2 µg/mL (≈ 1.38 µM)
MBC (Staphylococcus aureus [34]): 1 µg/mL (≈ 0.69 µM)
MBC (Staphylococcus aureus [35]): 1 µg/mL (≈ 0.69 µM)
MBC (Staphylococcus aureus [36]): 1 µg/mL (≈ 0.69 µM)
MBC (Enterococcus faecalis [6]): 2 µg/mL (≈ 1.38 µM)
MIC (Enterococcus faecalis [6]): 2 µg/mL (≈ 1.38 µM)

Oc1ccc([C@@H]2Nc3ccc(OC(F)(F)F)cc3[C@H]3[C@@H]4CC[C@@H](C4)[C@H]32)cc1
MIC (Staphylococcus aureus [1]): > 16 µg/mL

Oc1ccc([C@@H]2Nc3ccc(OC(F)F)cc3[C@H]3[C@@H]4CC[C@@H](C4)[C@H]32)cc1
MIC (Staphylococcus aureus [1]): 8 µg/mL (≈ 22.4 µM)

Oc1ccc([C@@H]2Nc3c(OC(F)(F)F)cccc3[C@H]3[C@@H]4CC[C@@H](C4)[C@H]32)cc1
MIC (Staphylococcus aureus [1]): 4 µg/mL (≈ 10.7 µM)

COc1ccc2c(c1)[C@H]1[C@@H]3CC[C@@H](C3)[C@H]1[C@H](c1ccc(O)cc1)N2
MIC (Staphylococcus aureus [1]): 4 µg/mL (≈ 12.4 µM)

Oc1ccc([C@@H]2Nc3ccccc3[C@H]3[C@@H]4CC[C@@H](C4)[C@H]32)cc1
MIC (Staphylococcus aureus [1]): > 16 µg/mL

Oc1c(Cl)cc(Cl)cc1Sc1cc(Cl)cc(Cl)c1O [BITHIONOL]
MBEC (Enterococcus faecalis [8]): 8 µg/mL
MBEC (Enterococcus faecium [22]): 8 µg/mL
MBEC (Staphylococcus aureus [26]): 8 µg/mL

Oc1ccc([C@@H]2Nc3ccc(F)cc3[C@H]3[C@@H]4CC[C@@H](C4)[C@H]32)cc1
MIC (Staphylococcus aureus [1]): > 16 µg/mL
